Laboratory results published in US7196190B2, “Methods and compositions for screening for angiogenesis modulating compounds” (Xenogen Corporation, priority 1999, dated 2007).

System: VEGFR-2 promoter
Assay: In vivo bioluminescence imaging of female VEGFR2 transgenic mouse during estrus
Settings: subcutaneous 30mg/kg/day for 16 days, female VEGFR2 transgenic F1 mouse (founder KA); before treatment signal high for a maximum of 3–5 days
From the text: Two female VEGFR2 transgenic F1 mice from founder KA (See Example 7 above) were subjected to in vivo imaging of bioluminescence both dorsally and ventrally over a 16 day period according to the methods described in U.S. Pat. No. 5,650,135 to Contag et al. The results are presented graphically in FIGS. 18A–18D (FIGS. 18A and 18B, mouse 1 and 2 dorsal views, respectively, and FIGS. 18C and 18D, mouse 1 and 2 ventral views, respectively). […] In general, higher levels of luminescence were detectable ventrally as compared to dorsally. The signals appeared to be localized in the ovary (dorsal view) and uterus (ventral view). Both ovaries were clearly visible in most of the dorsal views. The uterus, connecting tubes and ovaries were visible in some of the ventral views.
The effect of the known estrogen antagonist ICI 182 780 (Tocris Cookson Ltd. Bristol, UK) on gene expression mediated by the VEGFR-2 promoter was investigated using the methods described in the preceding example.
A mature female VEGFR2 transgenic F1 mouse from founder KA (See Example 7 above) was imaged daily for 16 days according to the methods described in U.S. Pat. No. 5,650,135 to Contag et al. The bioluminescence signal remained high for a maximum of from 3–5 days, dropping back to a basal level for the interim periods. […]

C[C@]12CC[C@@H]3c4ccc(O)cc4C[C@@H](CCCCCCCCC[S+]([O-])CCCC(F)(F)C(F)(F)F)[C@H]3[C@@H]1CC[C@@H]2O (stereo partly shown) [ICI 182 780]
time the uterine bioluminescence signal remained high before dropping back to basal level: 9 days
